Experimental data: Sander's compilation of Henry's law constants (doi:10.1021/ac00070a008)

Test: Henry solubility constant Hcp at 298.15 K (mol/(m3 Pa))
Conditions: reference: Li et al. (1993)

Row | SMILES | Henry solubility constant Hcp
1 | ClC=C(Cl)Cl [trichloroethene] | 0.001
2 | CCCOCCC [dipropyl ether] | 0.0029
3 | CCCCCCl [1-chloropentane] | 0.00042
4 | CC(C)Br [2-bromopropane] | 0.00084
5 | Cc1cc(C)cc(C)c1 [1,3,5-trimethylbenzene] | 0.0014
6 | CCCCCCCl [1-chlorohexane] | 0.00031
7 | CCCCc1ccccc1 [butylbenzene] | 0.00067
8 | CC(C)c1ccccc1 [(2-propyl)-benzene] | 0.00089
9 | CC(Cl)(Cl)Cl [1,1,1-trichloroethane] | 0.00057
10 | CC(C)Cl [2-chloropropane] | 0.00054
11 | c1ccccc1 [benzene] | 0.0018
12 | ClC(Cl)=C(Cl)Cl [tetrachloroethene] | 0.00063
13 | Cc1ccccc1C [1,2-dimethylbenzene] | 0.0021
14 | ClCCl [dichloromethane] | 0.0038
15 | CC(C)OC(C)C [diisopropyl ether] | 0.0044
16 | CCC(C)Br (stereo unspecified) [2-bromobutane] | 0.00077
17 | CCc1ccccc1 [ethylbenzene] | 0.0013
18 | CCCI [1-iodopropane] | 0.0011
19 | Cc1ccc(C)cc1 [1,4-dimethylbenzene] | 0.0014
20 | CCBr [bromoethane] | 0.0013
21 | Cc1cccc(C)c1 [1,3-dimethylbenzene] | 0.0015
22 | CCCCCl [1-chlorobutane] | 0.00053
23 | CCCBr [1-bromopropane] | 0.0011
24 | CCCc1ccccc1 [propylbenzene] | 0.00091
25 | Cc1ccccc1 [methylbenzene] | 0.0016
26 | CCI [iodoethane] | 0.0014
